Experiments:
[1] = biological target: T1, E3 ubiquitin-protein ligase CBL-B (Homo sapiens, UniProt Q13191); experiment: Inhibition of N-terminal Avi-tagged human CBL-B (36 to 427 residues) incubated with 60 nM Src kinase for 1.5 hrs followed by incubation with fluorescently labeled UbcH5B-Ub for 1 hr and measured by TR-FRET assay; assay type: single protein
[2] = Induction of anti-CD3 antibodies-stimulated human T cell activation at 1 uM assessed fold increase in IL-2 secretion measured by ELISA assay; assay type: functional, T cell line; also: reference of the scale not given here
[3] = Induction of anti-CD3 antibodies-stimulated human T cell activation at 8 uM assessed fold increase in CD25 expression measured by ELISA assay; assay type: functional, T cell line; also: reference of the scale not given here
[4] = Induction of anti-CD3/CD28 antibodies-stimulated human T cell activation at 1 uM assessed fold increase in CD25 expression measured by ELISA assay; assay type: functional, T cell line
[5] = Induction of anti-CD3/CD28 antibodies-stimulated human T cell activation at 4 uM assessed fold increase in CD25 expression measured by ELISA assay; assay type: functional, T cell line
[6] = Induction of anti-CD3 antibodies-stimulated human T cell activation at 8 uM assessed fold increase in IL-2 secretion measured by ELISA assay; assay type: functional, T cell line; also: reference of the scale not given here
[7] = Induction of anti-CD3/CD28 antibodies-stimulated human T cell activation at 0.3 uM assessed fold increase in IL-2 secretion measured by ELISA assay; assay type: functional, T cell line
[8] = Induction of anti-CD3/CD28 antibodies-stimulated human T cell activation at 4 uM assessed fold increase in IL-2 secretion measured by ELISA assay; assay type: functional, T cell line
[9] = Induction of anti-CD3/CD28 antibodies-stimulated human T cell activation at 1 uM assessed fold increase in IL-2 secretion measured by ELISA assay; assay type: functional, T cell line
[10] = Induction of anti-CD3 antibodies-stimulated human T cell activation at 1 uM assessed fold increase in CD25 expression measured by ELISA assay; assay type: functional, T cell line; also: reference of the scale not given here
[11] = biological target: T1, E3 ubiquitin-protein ligase CBL-B; experiment: Binding affinity towards N-terminal biotinylated Avi-tagged human CBL-B (36 to 427 residues) measured by surface plasmon resonance assay
[12] = Induction of anti-CD3/CD28 antibodies-stimulated human T cell activation at 0.3 uM assessed fold increase in CD25 expression measured by ELISA assay; assay type: functional, T cell line

T1 sequence (Q13191 whole entry, the tested form may be a part): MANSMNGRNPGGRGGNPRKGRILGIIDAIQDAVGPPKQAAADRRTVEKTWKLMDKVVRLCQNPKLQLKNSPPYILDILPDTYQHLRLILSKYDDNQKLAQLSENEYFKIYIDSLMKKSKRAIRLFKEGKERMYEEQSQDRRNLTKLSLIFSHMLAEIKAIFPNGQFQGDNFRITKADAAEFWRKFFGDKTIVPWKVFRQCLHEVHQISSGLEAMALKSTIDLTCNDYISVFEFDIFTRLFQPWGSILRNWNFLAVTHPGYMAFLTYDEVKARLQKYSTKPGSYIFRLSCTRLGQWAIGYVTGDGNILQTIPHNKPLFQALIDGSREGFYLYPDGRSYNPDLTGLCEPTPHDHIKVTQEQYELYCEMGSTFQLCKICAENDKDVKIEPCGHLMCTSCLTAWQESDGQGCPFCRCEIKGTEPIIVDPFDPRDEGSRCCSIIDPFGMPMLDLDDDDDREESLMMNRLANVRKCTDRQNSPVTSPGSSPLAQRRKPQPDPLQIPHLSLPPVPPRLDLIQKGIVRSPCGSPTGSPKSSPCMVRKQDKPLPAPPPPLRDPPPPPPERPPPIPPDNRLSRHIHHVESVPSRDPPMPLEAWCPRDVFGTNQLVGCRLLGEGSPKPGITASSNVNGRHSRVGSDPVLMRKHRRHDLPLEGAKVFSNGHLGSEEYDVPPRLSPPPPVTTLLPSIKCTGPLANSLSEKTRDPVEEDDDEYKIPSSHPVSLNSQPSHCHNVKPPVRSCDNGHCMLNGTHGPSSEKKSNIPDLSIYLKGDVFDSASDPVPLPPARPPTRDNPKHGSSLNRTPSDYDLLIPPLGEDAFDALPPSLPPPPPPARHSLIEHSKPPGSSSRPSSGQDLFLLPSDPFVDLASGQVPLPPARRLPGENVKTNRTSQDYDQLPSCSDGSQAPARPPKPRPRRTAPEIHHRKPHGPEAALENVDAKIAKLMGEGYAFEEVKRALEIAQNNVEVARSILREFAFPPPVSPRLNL

IC50 [1] | Kd [11] | Structure (SMILES) | fold change (FC) [2] | fold change (FC) [3] | fold change (FC) [4] | fold change (FC) [5] | fold change (FC) [6] | fold change (FC) [7] | fold change (FC) [8] | fold change (FC) [9] | fold change (FC) [10] | fold change (FC) [12]
< 0.1 µM | < 0.1 µM | C[C@H](Cc1nncn1C)c1cccc(N2Cc3c(cc(C(=O)N4C[C@@H](O)C[C@H]4C)cc3C(F)(F)F)C2=O)c1.O=C(O)C(F)(F)F | >=0.201 | >=1.001 | 1.51 | >=1.76 | >=0.201 | 2.51 | >=7.5 | 5 | 0.801 | 1.31
< 0.1 µM | < 0.1 µM | C[C@H](Cc1nncn1C)c1cccc(N2Cc3c(cc(CN4C[C@@H](F)[C@@H](O)C4)cc3C(F)(F)F)C2=O)c1 | 0.151 | >=1.001 | 1.31 | 1.31 | >=0.201 | 2.51 | >=7.5 | 5 | >=1.001 | 1.01
< 0.1 µM | < 0.1 µM | C[C@H](Cc1nncn1C)c1cccc(N2Cc3c(cc(CN4CC(F)(F)C4)cc3C(F)(F)F)C2=O)c1 | 0.151 | >=1.001 | 1.31 | 1.31 | >=0.201 | 5 | >=7.5 | >=7.5 | >=1.001 | 1.01
< 0.1 µM | < 0.1 µM | C[C@H](Cc1nncn1C)c1cccc(N2Cc3c(cc(N(C)[C@H]4CCNC4)cc3C(F)(F)F)C2=O)c1 | 0.151 | >=1.001 | 1.31 | 1.51 | >=0.201 | 2.51 | >=7.5 | 2.51 | 0.801 | 1.31
< 0.1 µM | < 0.1 µM | Cn1cnnc1C(F)(F)[C@](C)(F)c1cccc(N2Cc3c(cc(CN4CC[C@@H](S(C)(=O)=O)C4)cc3C(F)(F)F)C2=O)c1 | 0.151 | >=1.001 | 1.01 | 1.31 | >=0.201 | 2.51 | >=7.5 | 5 | 0.801 | 1.01
< 0.1 µM | < 0.1 µM | CCOc1cc([C@H](C)Cc2nncn2C)cc(N2Cc3c(cccc3C(F)(F)F)C2=O)n1 | 0.151 | >=1.001 | 1.31 | 1.31 | >=0.201 | 2.51 | >=7.5 | 5 | >=1.001 | 1.01
< 0.1 µM | < 0.1 µM | Cc1n[nH]c(C)c1-c1cc2c(c(C(F)(F)F)c1)CN(c1cccc([C@H](C)Cc3nncn3C)c1)C2=O | >=0.201 | >=1.001 | 1.51 | >=1.76 | >=0.201 | 2.51 | >=7.5 | >=7.5 | >=1.001 | 1.31

— ChEMBL document CHEMBL5050844 (2019)
